# Experiment: Weekly hematology (CBC with differential); on Red Blood Cells HCT: test concentration or dose not given here; on White Blood Cells BASO: test concentration or dose not given here; on White Blood Cells EOS: test concentration or dose not given here; on White Blood Cells LYMP + MONO: test concentration or dose not given here; on White Blood Cells NEUT: test concentration or dose not given here; on White Blood Cells WBC: test concentration or dose not given here
# Assay type: in vivo, Male Ross x Ross broiler chickens
substance,measurement,setting,value
Candida utilis phosphoglucomannan-soy bean proteins [CUPS],Others Het/Poly,"Day 3, dose group 1",19.75%
same,Red Blood Cells HCT,"Day 3, dose group 1",30.67%
same,White Blood Cells BASO,"Day 3, dose group 1",127.50 X/uL
same,White Blood Cells EOS,"Day 3, dose group 1",0.00 X/uL
same,White Blood Cells LYMP + MONO,"Day 3, dose group 1",2590.00 X/uL
same,White Blood Cells NEUT,"Day 3, dose group 1",782.50 X/uL
same,White Blood Cells WBC,"Day 3, dose group 1",3000 µL⁻¹
same,Others Het/Poly,"Day 3, dose group 3",31.67%
same,Red Blood Cells HCT,"Day 3, dose group 3",27.80%
same,White Blood Cells BASO,"Day 3, dose group 3",45.00 X/uL
same,White Blood Cells EOS,"Day 3, dose group 3",0.00 X/uL
same,White Blood Cells LYMP + MONO,"Day 3, dose group 3",2060.00 X/uL
same,White Blood Cells NEUT,"Day 3, dose group 3",1061.67 X/uL
same,White Blood Cells WBC,"Day 3, dose group 3",3170 µL⁻¹
same,Others Het/Poly,"Day 3, dose group 20",27.00%
same,Red Blood Cells HCT,"Day 3, dose group 20",27.00%
same,White Blood Cells BASO,"Day 3, dose group 20",16.00 X/uL
same,White Blood Cells EOS,"Day 3, dose group 20",16.00 X/uL
same,White Blood Cells LYMP + MONO,"Day 3, dose group 20",2950.00 X/uL
same,White Blood Cells NEUT,"Day 3, dose group 20",818.00 X/uL
same,White Blood Cells WBC,"Day 3, dose group 20",3800 µL⁻¹
same,Others Het/Poly,"Day 7, dose group 1",45.00%
same,White Blood Cells BASO,"Day 7, dose group 1",0.00 X/uL
same,White Blood Cells EOS,"Day 7, dose group 1",0.00 X/uL
same,White Blood Cells LYMP + MONO,"Day 7, dose group 1",5500.00 X/uL
same,White Blood Cells NEUT,"Day 7, dose group 1",4500.00 X/uL
same,White Blood Cells WBC,"Day 7, dose group 1",10000 µL⁻¹
same,Others Het/Poly,"Day 7, dose group 3",19.67%
same,White Blood Cells BASO,"Day 7, dose group 3",146.67 X/uL
same,White Blood Cells EOS,"Day 7, dose group 3",0.00 X/uL
same,White Blood Cells LYMP + MONO,"Day 7, dose group 3",5273.33 X/uL
same,White Blood Cells NEUT,"Day 7, dose group 3",1246.67 X/uL
same,White Blood Cells WBC,"Day 7, dose group 3",6670 µL⁻¹
same,Others Het/Poly,"Day 7, dose group 20",33.00%
same,White Blood Cells BASO,"Day 7, dose group 20",180.00 X/uL
same,White Blood Cells EOS,"Day 7, dose group 20",0.00 X/uL
same,White Blood Cells LYMP + MONO,"Day 7, dose group 20",4513.33 X/uL
same,White Blood Cells NEUT,"Day 7, dose group 20",2306.67 X/uL
same,White Blood Cells WBC,"Day 7, dose group 20",7000 µL⁻¹
same,Others Het/Poly,"Day 15, dose group 1",37.00%
same,Red Blood Cells HCT,"Day 15, dose group 1",32.00%
same,White Blood Cells BASO,"Day 15, dose group 1",266.67 X/uL
same,White Blood Cells EOS,"Day 15, dose group 1",0.00 X/uL
same,White Blood Cells LYMP + MONO,"Day 15, dose group 1",6963.33 X/uL
same,White Blood Cells NEUT,"Day 15, dose group 1",4436.67 X/uL
same,White Blood Cells WBC,"Day 15, dose group 1",11670 µL⁻¹
same,Others Het/Poly,"Day 15, dose group 3",30.67%
same,Red Blood Cells HCT,"Day 15, dose group 3",29.00%
same,White Blood Cells BASO,"Day 15, dose group 3",406.67 X/uL
same,White Blood Cells EOS,"Day 15, dose group 3",0.00 X/uL
same,White Blood Cells LYMP + MONO,"Day 15, dose group 3",8000.00 X/uL
same,White Blood Cells NEUT,"Day 15, dose group 3",3926.67 X/uL
same,White Blood Cells WBC,"Day 15, dose group 3",12330 µL⁻¹
same,Others Het/Poly,"Day 15, dose group 20",31.67%
same,Red Blood Cells HCT,"Day 15, dose group 20",24.33%
same,White Blood Cells BASO,"Day 15, dose group 20",180.00 X/uL
same,White Blood Cells EOS,"Day 15, dose group 20",0.00 X/uL
same,White Blood Cells LYMP + MONO,"Day 15, dose group 20",5213.33 X/uL
same,White Blood Cells NEUT,"Day 15, dose group 20",2606.67 X/uL
same,White Blood Cells WBC,"Day 15, dose group 20",8000 µL⁻¹
same,Others Het/Poly,"Day 21, dose group 1",28.33%
same,Red Blood Cells HCT,"Day 21, dose group 1",30.33%
same,White Blood Cells BASO,"Day 21, dose group 1",630.00 X/uL
same,White Blood Cells EOS,"Day 21, dose group 1",0.00 X/uL
same,White Blood Cells LYMP + MONO,"Day 21, dose group 1",7243.33 X/uL
same,White Blood Cells NEUT,"Day 21, dose group 1",3126.67 X/uL
same,White Blood Cells WBC,"Day 21, dose group 1",11000 µL⁻¹
same,Others Het/Poly,"Day 21, dose group 3",29.67%
same,Red Blood Cells HCT,"Day 21, dose group 3",31.00%
same,White Blood Cells BASO,"Day 21, dose group 3",523.33 X/uL
same,White Blood Cells EOS,"Day 21, dose group 3",0.00 X/uL
same,White Blood Cells LYMP + MONO,"Day 21, dose group 3",6016.67 X/uL
same,White Blood Cells NEUT,"Day 21, dose group 3",2793.33 X/uL
same,White Blood Cells WBC,"Day 21, dose group 3",9330 µL⁻¹
same,Others Het/Poly,"Day 21, dose group 20",35.50%
same,Red Blood Cells HCT,"Day 21, dose group 20",31.50%
same,White Blood Cells BASO,"Day 21, dose group 20",850.00 X/uL
same,White Blood Cells EOS,"Day 21, dose group 20",0.00 X/uL
same,White Blood Cells LYMP + MONO,"Day 21, dose group 20",6530.00 X/uL
same,White Blood Cells NEUT,"Day 21, dose group 20",4120.00 X/uL
same,White Blood Cells WBC,"Day 21, dose group 20",11500 µL⁻¹
same,Others Het/Poly,"Day 28, dose group 1",56.33%
same,Red Blood Cells HCT,"Day 28, dose group 1",33.00%
same,White Blood Cells BASO,"Day 28, dose group 1",260.00 X/uL
same,White Blood Cells EOS,"Day 28, dose group 1",0.00 X/uL
same,White Blood Cells LYMP + MONO,"Day 28, dose group 1",2300.00 X/uL
same,White Blood Cells NEUT,"Day 28, dose group 1",4106.67 X/uL
same,White Blood Cells WBC,"Day 28, dose group 1",6670 µL⁻¹
same,Others Het/Poly,"Day 28, dose group 3",59.00%
same,Red Blood Cells HCT,"Day 28, dose group 3",29.67%
same,White Blood Cells BASO,"Day 28, dose group 3",450.00 X/uL
same,White Blood Cells EOS,"Day 28, dose group 3",0.00 X/uL
same,White Blood Cells LYMP + MONO,"Day 28, dose group 3",3216.67 X/uL
same,White Blood Cells NEUT,"Day 28, dose group 3",5000.00 X/uL
same,White Blood Cells WBC,"Day 28, dose group 3",8670 µL⁻¹
same,Others Het/Poly,"Day 28, dose group 20",44.00%
same,Red Blood Cells HCT,"Day 28, dose group 20",27.33%
same,White Blood Cells BASO,"Day 28, dose group 20",393.33 X/uL
same,White Blood Cells EOS,"Day 28, dose group 20",0.00 X/uL
same,White Blood Cells LYMP + MONO,"Day 28, dose group 20",3386.67 X/uL
same,White Blood Cells NEUT,"Day 28, dose group 20",3553.33 X/uL
same,White Blood Cells WBC,"Day 28, dose group 20",7330 µL⁻¹
same,Others Het/Poly,"Day 35, dose group 1",33.00%
same,Red Blood Cells HCT,"Day 35, dose group 1",29.67%
same,White Blood Cells BASO,"Day 35, dose group 1",386.67 X/uL
same,White Blood Cells EOS,"Day 35, dose group 1",0.00 X/uL
same,White Blood Cells LYMP + MONO,"Day 35, dose group 1",4026.67 X/uL
same,White Blood Cells NEUT,"Day 35, dose group 1",2253.33 X/uL
same,White Blood Cells WBC,"Day 35, dose group 1",6670 µL⁻¹
same,Others Het/Poly,"Day 35, dose group 3",31.00%
same,Red Blood Cells HCT,"Day 35, dose group 3",29.00%
same,White Blood Cells BASO,"Day 35, dose group 3",423.33 X/uL
same,White Blood Cells EOS,"Day 35, dose group 3",0.00 X/uL
same,White Blood Cells LYMP + MONO,"Day 35, dose group 3",4366.67 X/uL
same,White Blood Cells NEUT,"Day 35, dose group 3",2210.00 X/uL
same,White Blood Cells WBC,"Day 35, dose group 3",7000 µL⁻¹
same,Others Het/Poly,"Day 35, dose group 20",34.67%
same,Red Blood Cells HCT,"Day 35, dose group 20",25.50%
same,White Blood Cells BASO,"Day 35, dose group 20",393.33 X/uL
same,White Blood Cells EOS,"Day 35, dose group 20",0.00 X/uL
same,White Blood Cells LYMP + MONO,"Day 35, dose group 20",4323.33 X/uL
same,White Blood Cells NEUT,"Day 35, dose group 20",2283.33 X/uL
same,White Blood Cells WBC,"Day 35, dose group 20",7000 µL⁻¹
same,Others Het/Poly,"Day 42, dose group 1",31.33%
same,Red Blood Cells HCT,"Day 42, dose group 1",30.33%
same,White Blood Cells BASO,"Day 42, dose group 1",450.00 X/uL
same,White Blood Cells EOS,"Day 42, dose group 1",0.00 X/uL
same,White Blood Cells LYMP + MONO,"Day 42, dose group 1",6200.00 X/uL
same,White Blood Cells NEUT,"Day 42, dose group 1",3016.67 X/uL
same,White Blood Cells WBC,"Day 42, dose group 1",9670 µL⁻¹
same,Others Het/Poly,"Day 42, dose group 3",34.67%
same,Red Blood Cells HCT,"Day 42, dose group 3",29.33%
same,White Blood Cells BASO,"Day 42, dose group 3",466.67 X/uL
same,White Blood Cells EOS,"Day 42, dose group 3",0.00 X/uL
same,White Blood Cells LYMP + MONO,"Day 42, dose group 3",5760.00 X/uL
same,White Blood Cells NEUT,"Day 42, dose group 3",3106.67 X/uL
same,White Blood Cells WBC,"Day 42, dose group 3",9330 µL⁻¹
same,Others Het/Poly,"Day 42, dose group 20",35.00%
same,Red Blood Cells HCT,"Day 42, dose group 20",28.67%
same,White Blood Cells BASO,"Day 42, dose group 20",406.67 X/uL
same,White Blood Cells EOS,"Day 42, dose group 20",0.00 X/uL
same,White Blood Cells LYMP + MONO,"Day 42, dose group 20",4980.00 X/uL
same,White Blood Cells NEUT,"Day 42, dose group 20",3013.33 X/uL
same,White Blood Cells WBC,"Day 42, dose group 20",8670 µL⁻¹
same,Others Het/Poly,"Day 49, dose group 1",27.33%
same,Red Blood Cells HCT,"Day 49, dose group 1",29.00%
same,White Blood Cells BASO,"Day 49, dose group 1",213.33 X/uL
same,White Blood Cells EOS,"Day 49, dose group 1",40.00 X/uL
same,White Blood Cells LYMP + MONO,"Day 49, dose group 1",5766.67 X/uL
same,White Blood Cells NEUT,"Day 49, dose group 1",2646.67 X/uL
same,White Blood Cells WBC,"Day 49, dose group 1",8670 µL⁻¹
same,Others Het/Poly,"Day 49, dose group 3",34.33%
same,Red Blood Cells HCT,"Day 49, dose group 3",30.67%
same,White Blood Cells BASO,"Day 49, dose group 3",243.33 X/uL
same,White Blood Cells EOS,"Day 49, dose group 3",0.00 X/uL
same,White Blood Cells LYMP + MONO,"Day 49, dose group 3",5510.00 X/uL
same,White Blood Cells NEUT,"Day 49, dose group 3",2913.33 X/uL
same,White Blood Cells WBC,"Day 49, dose group 3",8670 µL⁻¹
same,Others Het/Poly,"Day 49, dose group 20",43.33%
same,Red Blood Cells HCT,"Day 49, dose group 20",30.33%
same,White Blood Cells BASO,"Day 49, dose group 20",296.67 X/uL
same,White Blood Cells EOS,"Day 49, dose group 20",0.00 X/uL
same,White Blood Cells LYMP + MONO,"Day 49, dose group 20",4483.33 X/uL
same,White Blood Cells NEUT,"Day 49, dose group 20",3553.33 X/uL
same,White Blood Cells WBC,"Day 49, dose group 20",8330 µL⁻¹

# — patent publication US20070036839A1, “Phosphorylated glucomannane polysaccharides containing 1-6 and 1-2 linkages increase weight gain in poultry” (priority 2005, published 2007)
